Measured values reported in patent publication US20240398824A1, “Inhibition Of Rip Kinases For Treating Neurodegenerative Disorders” (The Johns Hopkins University, priority 2018, published 2024).

What was measured:
[1] = system: primary microglia activated with α-synuclein PFFs; experiment: qPCR of A1 astrocyte inducers (TNFα, IL-1α, C1q) in primary microglia activated with α-synuclein PFFs; format: cell-based, mouse; conditions: inhibitor 10 μM 30 min, then α-synuclein PFFs 1 μg/mL 4 h; in words
Method: α-synuclein purification and α-synuclein PFFs preparation: Recombinant mouse α-synuclein proteins were purified as previously described with an IPTG-independent inducible pRK172 vector system (Nat Protoc. 9(9): 2135-46 (2014)). Endotoxin was depleted by ToxinEraser endotoxin removal kit (Genscript, NJ, USA). α-synuclein PFFs (5 mg ml^−1) was prepared in PBS while stirring with a magnetic stirrer (1,000 rpm at 37° C.). After a week of incubation of the α-synuclein protein, aggregates were diluted to 0.1 mg ml^−1 with PBS and sonicated for 30 s (0.5 s pulse on/off) at 10% amplitude (Branson Digital sonifier, Danbury, CT, USA). α-synuclein PFFs was validated using atomic force microscopy and transmission electron microscopy, and the ability to induce phospho-serine 129 α-synuclein (p-α-synSer129) was confirmed using immunostaining. α-synuclein PFFs was stored at −80° C. until use. […]
Comparative qPCR: The total RNA from cultured cells was extracted with RNA isolation kit (Qiagen, CA) following the instruction provided by the company. RNA concentration was measured spectrophotometrically using NanoDrop 2000 ([…]). […] The expression levels of targeted genes were normalized to the expression of β-actin and calculated based on the comparative cycle threshold Ct method (2-ΔΔCt).

[2] = system: α-synuclein PFFs-induced PD mice; experiment: α-synuclein PFFs-induced PD mouse model, IHC of ventral midbrain / SN; format: in vivo
Method: Study rationale and objectives: The purpose of this study was to investigate the anti-PD efficacy of Gefitinib, RIPK2 inhibitor, in the α-synuclein PFF model PD. To this end, α-synuclein PFF were injected into the striatum of NOD2 KO or RIPK2 KO. α-synuclein PFFs-induced PD mice were orally treated with Gefitinib (Gef) (30 mg/kg, once daily) after 1 month striatal α-synuclein PFF injection for 5 months and tissues were analyzed.
Mouse strain for stereotaxic α-synuclein PFFs injection: NOD2 or RIPK2 KO mice was obtained from the Jackson Laboratories (Bar Harbor, ME). All housing, breeding, and procedures were performed according to the NIH Guide for the Care and Use of Experimental Animals and approved by the Johns Hopkins University Animal Care and Use Committee.
α-synuclein protein purification and PFF preparation: Recombinant mouse α-synuclein proteins were purified as previously described with an IPTG-independent inducible pRK172 vector system. Endotoxin was depleted by ToxinEraser endotoxin removal kit (Genscript, NJ, USA). α-synuclein PFFs (5 mg ml^−1) was prepared in PBS while stirring with a magnetic stirrer (1,000 rpm at 37° C.). After a week of incubation of the α-synuclein protein, aggregates were diluted to 0.1 mg ml^−1 with PBS and sonicated for 30 s (0.5 s pulse on/off) at 10% amplitude (Branson Digital sonifier, Danbury, CT, USA). α-synuclein PFFs was validated using atomic force microscopy and transmission electron microscopy, and the ability to induce phospho-serine 129 α-synuclein (p-α-synSer129) was confirmed using immunostaining. α-synuclein PFFs was stored at −80° C. until use.
Stereotaxic α-synuclein PFFs injection and Immunohistochemistry (IHC): For stereotaxic injection of α-synuclein PFFs, 3 months old NOD2 KO or RIPK2 KO male and female mice were anesthetized with xylazene and ketamine. An injection cannula (26.5 gauge) was applied stereotaxically into the striatum (STR) (mediolateral, 2.0 mm from bregma; anteroposterior, 0.2 mm; dorsoventral, 2.6 mm) unilaterally into the right hemisphere. The infusion of 2 μL α-synuclein PFFs ([…] in PBS) or the same volume of PBS was performed at a rate of 0.2 μL per min. After the final dose, the injection cannula was maintained in the STR for additional 5 min for a complete absorption of the α-synuclein PFFs or PBS then slowly removed from the mouse brain. The head skin was closed by suturing and wound healing and recovery were monitored following surgery. For IHC analysis, animals were perfused and fixed intracardially with ice-cold PBS followed by 4% paraformaldehyde at 3 months after striatal α-synuclein PFFs injections. The brain was removed and processed for immunohistochemistry. IHC for pS129-α-synuclein immunoreactivity was performed at 3 months after the unilateral striatal α-synuclein PFFs injections. Treatment of Gefitinib was accomplished after one month of unilateral striatal α-synuclein PFFs injection, once daily.

COc1cc2ncnc(Nc3ccc(F)c(Cl)c3)c2cc1OCCCN1CCOCC1 [Gefitinib]
release of A1 astrocyte inducer (TNFα, IL-1α, C1q) from microglia [1]: significantly suppress
# of p-αSyn positive signal in the SN ([2]; Gefitinib 30 mg/kg oral once daily, PFF-injected mice, Veh + PFFs 32.14 ± 1.93, mean ± SEM, n = 5): 16.49 ± 2.01
# of microglia in the SN ([2]; Gefitinib 30 mg/kg oral once daily, PFF-injected mice, Veh + PFFs 1138.72 ± 91.48, mean ± SEM, n = 5): 409.15 ± 94.27
microglia activation in the ventral midbrain ([2]; IHC, vs non-treated PD mice, in words): suppresses microglia activation
α-synuclein PFFs induced pathologies in mice ([2]; oral administration, in words): significantly rescues α-synuclein PFFs induced pathologies
LB pathology (pS129-α-synuclein immunoreactivity) ([2]; ventral midbrain, IHC, vs non-treated PD mice, in words): significantly ameliorates LB pathology

CC(C)(C)S(=O)(=O)c1ccc2nccc(Nc3n[nH]c4ccc(F)cc34)c2c1 [GSK583, 6-(tert-butylsulfonyl)-N-(5-fluoro-1H-indazol-3-yl) quinolin-4-amine]
release of A1 astrocyte inducer (TNFα, IL-1α, C1q) from microglia [1]: significantly suppress
